ChEMBL document CHEMBL1208784, “Refinement of the pharmacophore of 3,4-dihydroquinazoline-2(1H)-thiones for their anti-melanogenesis activity” (Bioorg Med Chem Lett, 2010)

Experiments:
B16 [1] = test: Antimelanogenic activity in mouse B16 cells assessed as inhibition of alpha-MSH-induced melanogenesis; assay type: functional, cell-based
B16 [2] = test: Antimelanogenic activity in mouse B16 cells assessed as inhibition of alpha-MSH-induced melanogenesis at 10 uM; assay type: functional
Tyrosinase = target: T1, Tyrosinase (Mus musculus, UniProt P11344); test: Inhibition of tyrosinase in alpha-MSH-induced mouse B16 cells; assay type: cell-based
T1 sequence (P11344 whole entry): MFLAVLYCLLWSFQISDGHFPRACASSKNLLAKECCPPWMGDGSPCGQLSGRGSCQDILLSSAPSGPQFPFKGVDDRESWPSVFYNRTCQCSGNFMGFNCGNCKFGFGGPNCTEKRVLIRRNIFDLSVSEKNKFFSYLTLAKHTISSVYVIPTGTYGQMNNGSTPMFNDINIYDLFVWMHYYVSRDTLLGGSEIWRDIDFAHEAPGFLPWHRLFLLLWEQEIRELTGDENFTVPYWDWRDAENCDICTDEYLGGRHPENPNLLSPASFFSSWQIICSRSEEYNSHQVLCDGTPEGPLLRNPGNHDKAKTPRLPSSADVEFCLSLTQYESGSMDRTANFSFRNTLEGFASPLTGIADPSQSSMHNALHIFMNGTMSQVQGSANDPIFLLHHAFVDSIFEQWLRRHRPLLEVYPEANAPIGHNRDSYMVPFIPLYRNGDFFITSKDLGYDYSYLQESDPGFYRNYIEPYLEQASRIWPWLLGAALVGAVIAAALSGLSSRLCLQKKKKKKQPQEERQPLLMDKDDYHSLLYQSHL

B16 [3] = test: Antimelanogenic activity in mouse B16 cells assessed as inhibition of alpha-MSH-induced melanogenesis at 100 uM; assay type: functional

| SMILES | IC50 (B16 [1]) | inhibition at 10 µM (B16 [2]) | IC50 (Tyrosinase) | inhibition at 100 µM (B16 [3]) |
| --- | --- | --- | --- | --- |
| Cc1ccc2c(c1)CN(CC1CCCCC1)C(=S)N2 | 1.6 µM | > 100% | – | – |
| CCCCCCCN1Cc2cc(C)ccc2NC1=O | > 10 µM | 19% | – | – |
| Cc1ccc2c(c1)CN(C(C)C)C(=S)N2C | 19 µM | 10% | – | – |
| Cc1ccc2c(c1)CN(C(C)C)C(=S)N2 | 1.9 µM | > 100% | – | – |
| NC(=S)Nc1ccccc1 [PHENYLTHIOUREA] | – | – | 1.8 µM | – |
| S=C1Nc2ccc(Cl)cc2CN1CC1CCCCC1 | 1.2 µM | > 100% | – | – |
| O=C1Nc2ccc(Cl)cc2CN1CC1CCCCC1 | > 10 µM | 10% | – | – |
| CCCCCCN1Cc2cc(C)ccc2NC1=O | > 10 µM | 12% | – | – |
| NC(=O)Nc1ccccc1 | – | – | – | 0% |
| Cc1ccc2c(c1)CN(CC(C)C)C(=S)N2 | 1.9 µM | > 100% | – | – |
| Cc1ccc2c(c1)CN(CC(C)C)C(=S)N2C | 17.8 µM | 18% | – | – |
| Cc1ccc2c(c1)CN(C(C)C)C(=O)N2 | > 10 µM | 13% | – | – |
| CCCCCCN1Cc2cc(C)ccc2NC1=S | 1.2 µM | > 100% | – | – |
| Cc1ccc2c(c1)CN(CC(C)C)C(=O)N2 | > 10 µM | 11% | – | – |
| Cc1ccc2c(c1)CN(CCC(C)C)C(=O)N2 | > 10 µM | 15% | – | – |
| CCCCCCCN1Cc2cc(C)ccc2NC1=S | 1.4 µM | > 100% | – | – |
| Cc1ccc2c(c1)CN(CC1CCCCC1)C(=O)N2 | > 10 µM | 18% | – | – |
| O=C1NCc2ccccc2N1 | > 10 µM | 11% | – | – |
| S=C1NCc2ccccc2N1 | 15.8 µM | 36% | – | – |
| Cc1ccc2c(c1)CN(CCC(C)C)C(=S)N2 | 3 µM | > 100% | – | – |
